{"source": "paper PMC8056384", "about": "(ACS Chemical Biology, 2021)", "key": {"hGALK1 [1]": {"biological_target": "T1, hGALK1 (Homo sapiens, UniProt P51570, E253A/K252A)", "T1 construct": "A hGALK1 construct, encoding full-length protein harboring the surface entropy[41] mutations K252A:E253A; His6 (N); made in house; host or cells: E. coli BL21(DE3)", "T1 sequence (P51570 whole entry K252A/E253A)": "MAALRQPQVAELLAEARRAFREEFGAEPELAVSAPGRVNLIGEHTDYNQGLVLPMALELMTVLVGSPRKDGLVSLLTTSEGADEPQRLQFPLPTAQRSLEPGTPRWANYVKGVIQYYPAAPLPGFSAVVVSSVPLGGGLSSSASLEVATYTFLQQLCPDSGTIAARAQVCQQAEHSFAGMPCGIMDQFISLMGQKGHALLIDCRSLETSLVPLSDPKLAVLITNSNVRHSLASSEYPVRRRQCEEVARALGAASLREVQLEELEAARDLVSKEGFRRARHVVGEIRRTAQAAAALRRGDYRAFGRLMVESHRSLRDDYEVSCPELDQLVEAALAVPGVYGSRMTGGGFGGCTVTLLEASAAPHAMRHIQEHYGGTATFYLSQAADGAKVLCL", "assay": "Kinase-Glo luminescent hGALK1 activity assay", "format": "biochemical", "parameters": "Vmaxapp, substrate galactose, with ligand (+) / Kmapp, substrate galactose, with ligand (+): unit not given here", "experimental": "hGALK1 activity in vitro was determined using the Kinase-Glo luminescent kinase assay (Promega), according to the manufacturer’s protocol. […] Following a 1-h RT incubation, 10 μL of Kinase-Glo Plus detection reagent was added (final assay volume: 20 μL/well), and after a further 20 minutes RT incubation, luminescence was detected using a Pherastar FSX plate reader (BMG Labtech) containing a luminescence optics module. […] All reactions were performed in technical triplicates for two different preparations of hGALK1.\nData were plotted using GraphPad Prism software; curve fitting was performed with a nonlinear least-squares regression fit to the mixed, competitive, noncompetitive, and uncompetitive inhibition models from the GraphPad Prism enzyme kinetics–inhibition equations and the best fit selected by comparison of Akaike’s Information Criterion (AICc) probability scores and extra sum-of-squares F test P values calculated by the software."}, "hGALK1 [2]": {"biological_target": "T1, hGALK1", "assay": "Amplex Red fluorescence-based hGALK1 activity assay (coupled with galactose oxidase)", "format": "biochemical", "parameters": "Vmaxapp, substrate ATP, with ligand (+) / Kmapp, substrate ATP, with ligand (+): unit not given here", "excerpt": "Consequently, to confirm the mode of inhibition of the spiro-benzoxazole inhibitors with respect to ATP, we adopted the Amplex Red fluorescence-based assay[33],[34] by coupling the hGALK1 reaction with D. dendroides galactose oxidase (GAO; EC 1.1.3.9) to measure the level of galactose remaining after being depleted as a substrate for hGALK1. In this method, hydrogen peroxide generated by the oxidation of galactose by GAO is used by horseradish peroxidase to convert the nonfluorescent substrate Amplex Red into its highly fluorescent product resorufin; therefore, the resultant fluorescent signal is inversely proportional to hGALK1 enzyme activity. We optimized several parameters of this assay to allow measurement of hGALK1 activity for the first time (Figure S3; Supplementary Results).\nThe Amplex Red assay reagent contained horseradish peroxidase (EC 1.11.1.7, 0.2 U/mL), its substrate Amplex Red (10-acetyl-3,7-dihydroxyphenoxazine, 100 μM), and galactose oxidase (EC 1.1.3.9, 4 U/mL). The assay buffer used was the same as in the Kinase-Glo assay. […] Amplex Red reagent was added at a 1:1 volume to the hGALK1 reaction after 1-h incubation at RT. Fluorescence emission was measured at 585 nm, with excitation at 570 nm, after a further incubation period of 40 minutes, using a Pherastar FSX plate reader with a FI 540 590 optics module. Reactions were performed in technical triplicates for two biological replicates, and data were plotted and fitted as described for the Kinase-Glo assay except that the reaction rate, defined as total galactose consumed over the 1-h hGALK1 reaction, was determined using the following equation, where Fluorreaction = mean value of measured fluorescence of each reaction and Fluor50 = measured fluorescence with no galactose (i.e., fluorescence of 50 μM galactose): [drawing 2]"}, "[3]": {"conditions": "35 µM ATP, maximum tested concentration: 1 mM T1, 15 mM fragment 3, 2 mM 11–13"}, "[4]": {"conditions": "50 µM galactose, maximum tested concentration: 1 mM T1, 15 mM fragment 3, 2 mM 11–13"}}}
{"smiles": "CS(=O)(=O)c1nccn1Cc1cscn1", "note": "[fragment 2]", "values": [{"measurement": "change in hGALK1 activity, strictly standardized mean difference (SSMD)", "setting": "hGALK1 [1]; 5 mM fragment", "value": "< 0.5"}]}
{"smiles": "O=C(Cc1ccc(Cl)cc1)Nc1ncccn1", "note": "[fragment 3]", "values": [{"measurement": "mode of inhibition with respect to galactose", "setting": "hGALK1 [1]; 35 μM ATP, 0–250 μM galactose, best-fit model in GraphPad Prism", "value": "mixed"}, {"measurement": "Kmapp, substrate galactose, with ligand (+)", "setting": "hGALK1 [1]; [3]", "value": "184.2 ± 2.1"}, {"measurement": "Vmaxapp, substrate galactose, with ligand (+)", "setting": "hGALK1 [1]; [3]", "value": "5.1 ± 0.4"}, {"measurement": "change in hGALK1 activity, strictly standardized mean difference (SSMD)", "setting": "hGALK1 [1]; 5 mM fragment", "value": 2.79}, {"measurement": "reduction of hGALK1 activity", "setting": "hGALK1 [1]; 5 mM fragment, single-point", "value": "24 ± 1.6", "unit": "%"}, {"measurement": "decrease in Vmaxapp, galactose titration", "setting": "hGALK1 [1]; fragment 0–15 mM, 35 μM ATP", "value": 5, "unit": "fold"}, {"measurement": "increase in Kmapp, galactose titration", "setting": "hGALK1 [1]; fragment 0–15 mM, 35 μM ATP", "value": 6, "unit": "fold"}, {"measurement": "Kmapp, substrate ATP, with ligand (+)", "setting": "hGALK1 [2]; [4]", "value": "32.1 ± 8.4"}, {"measurement": "Vmaxapp, substrate ATP, with ligand (+)", "setting": "hGALK1 [2]; [4]", "value": "4.2 ± 0.3"}, {"measurement": "decrease in Vmaxapp, ATP titration", "setting": "hGALK1 [2]; fragment 0–15 mM, 50 μM galactose", "value": 4, "unit": "fold"}]}
{"smiles": "O=C(OCc1ccc(Cl)cc1)c1cccnc1", "note": "[fragment 4]", "values": [{"measurement": "change in hGALK1 activity, strictly standardized mean difference (SSMD)", "setting": "hGALK1 [1]; 5 mM fragment", "value": "< 0.5"}]}
{"smiles": "O=C(NCCN1CCCC1=O)Nc1ccccc1", "note": "[fragment 5]", "values": [{"measurement": "change in hGALK1 activity, strictly standardized mean difference (SSMD)", "setting": "hGALK1 [1]; 5 mM fragment", "value": "< 0.5"}]}
{"smiles": "Cc1ccc(C)c(OC(=O)c2ccncc2)c1", "note": "[fragment 7]", "values": [{"measurement": "change in hGALK1 activity, strictly standardized mean difference (SSMD)", "setting": "hGALK1 [1]; 5 mM fragment", "value": "< 0.5"}]}
{"smiles": "COc1ccc(Cl)cc1C(=O)NCC(C)C", "note": "[fragment 10]", "values": [{"measurement": "change in hGALK1 activity, strictly standardized mean difference (SSMD)", "setting": "hGALK1 [1]; 5 mM fragment", "value": 0.80}]}
